{
  "source": "paper PMC7447632",
  "about": "“Highly functionalized β-lactams and 2-ketopiperazines as TRPM8 antagonists with antiallodynic activity” (Scientific Reports, 2020)",
  "tested_on": "oxaliplatin-induced cold allodynia",
  "assay": "Oxaliplatin-induced cold allodynia in mice (acetone test)",
  "type": "in vivo",
  "settings": "for Cold allodynia (cold-induced paw licking, acetone test): oxaliplatin-treated male mice",
  "text": "Several chemotherapeutic agents in first clinical line induce peripheral neuropathies (known as CIPN), affecting million patients worldwide and limiting the dose administered to them, as well as the quality of life of many survivors. In oxaliplatin CIPN, the increased sensitivity to cold has been correlated to an augmented expression of TRPM8 channels, among others[4]–[6],[57]. In good correlation, there are recent experimental evidences describing that TRPM8 antagonists are able to decrease oxaliplatin-induced allodynia and cold hypersensitivity[34],[58]. According to these discoveries, we decided to explore the effects of β-lactam 24a in an in vivo model of oxaliplatin CIPN, using acetone assay for monitoring cold allodynia. In male mice, the injection of oxaliplatin on days 1, 3 and 5 at a 6 mg/kg dose produces peripheral cold allodynia.\nFigure 4 Effects of compound 24a on the oxaliplatin-induced cold allodynia (acetone test). Male mice were treated with oxaliplatin (6 mg/Kg, ip) or vehicle on days 1, 3 and 5. Then, compound 24a (1 µg/ipl, A or 3 µg/ipl, B) was administered to the oxaliplatin treated animals, and the time-course of cold allodynia was measured. Data are given ± SME (n = 5). **P < 0.05; ***P < 0.001; ****P < 0.0001.\nMale C57-mice (≈30 g) (Harlam, Holland) were used for the study. All experiments were approved by the Institutional Animal and Ethical Committee of the Universidad Miguel Hernandez where experiments were conducted and they were in accordance with the guidelines of the Economic European Community and the Committee for Research and Ethical Issues of the International Association for the Study of Pain. All parts of the study concerning animal care were performed under the control of veterinarians.\nAs previously described, oxaliplatin (Tocris) was dissolved in water with gentle warming and was […] injected on days 1, 3 and 5 at a 6 mg/kg dose. The day 7 after administration, experiments were performed. Together with Oxaliplatin injection, saline and a 5% Mannitol solution were intraperitoneally injected to prevent kidney damage and dehydration. The compound 24a stock was prepared in DMSO (Sigma-Aldrich) and diluted in saline for injections. Compound at different doses (1 to 3 μg) was injected into the plantar surface (25 μL) of the right hind paw of mice. Cold chemical thermal sensitivity was assessed using acetone drop method. Mice were placed in a metal mesh cage and allowed to habituate for approximately 30 min in order to acclimatize them. […] Cold chemical sensitive reaction with respect to paw licking was recorded as a positive response (nociceptive pain response). The responses were measured for 20-s with a digital stopwatch. For each measurement, the paw was sampled twice and the mean was calculated. […]",
  "note": "“Also recorded” adds a separate entry of the source.",
  "data": [
    {"smiles": "C[C@@H]1C(=O)N(C[C@H](Cc2ccccc2)NC(=O)OCc2ccccc2)[C@]1(Cc1ccccc1)C(=O)OCc1ccccc1", "note": "[Compound 24a, 4S-Benzyl-4-benzyloxycarbonyl-3S-methyl-1-[(2′S-benzyloxycarbonylamino-3′-phenyl)prop-1′-yl]-2-oxoazetidine]", "values": [
      {"measurement": "Cold allodynia (cold-induced paw licking, acetone test)", "setting": "1 μg intraplantar", "result": "attenuates the cold-induced paw licking in a significant manner"},
      {"measurement": "Cold allodynia (cold-induced paw licking, acetone test)", "setting": "3 µg intraplantar", "result": "clearly increased at 15 min, and firmly maintained up to 60 min"},
      {"measurement": "Time of maximum antiallodynic activity", "setting": "intraplantar, after administration", "result": "30 to 60", "unit": "min"},
      {"measurement": "Antiallodynic effect in oxaliplatin-induced peripheral neuropathy", "setting": "mice, dose not stated", "result": "significantly reduced cold allodynia; also recorded: significant antiallodynic effects"}
    ]}
  ]
}
